± gives the expanded uncertainty stated by the source.
Tests used:
[1] = molar heat capacity at constant pressure; xn = mol fraction of the nth substance listed; conditions: 101 kPa, Liquid, Small sample (50 mg) DSC
[2] = excess molar enthalpy (molar enthalpy of mixing); xn = mol fraction of the nth substance listed; conditions: 298.15 K, 101 kPa, Liquid, Calvet calorimetry

Compound: CCCCCCCC[n+]1ccc2ccccc2c1.N#C[S-] [2-octylisoquinolinium thiocyanate] + O
- molar heat capacity at constant pressure ([1]; 278.15 K, x1 = 0.3977): 248 ± 5 J/K/mol
- molar heat capacity at constant pressure ([1]; 278.15 K, x1 = 0.5237): 295 ± 6 J/K/mol
- molar heat capacity at constant pressure ([1]; 278.15 K, x1 = 0.5945): 334 ± 7 J/K/mol
- molar heat capacity at constant pressure ([1]; 278.15 K, x1 = 0.7214): 386 ± 8 J/K/mol
- molar heat capacity at constant pressure ([1]; 278.15 K, x1 = 0.8097): 423 ± 8 J/K/mol
- molar heat capacity at constant pressure ([1]; 278.15 K, x1 = 0.8935): 467 ± 9 J/K/mol
- molar heat capacity at constant pressure ([1]; 283.15 K, x1 = 0.3977): 250 ± 5 J/K/mol
- molar heat capacity at constant pressure ([1]; 283.15 K, x1 = 0.5237): 304 ± 6 J/K/mol
- molar heat capacity at constant pressure ([1]; 283.15 K, x1 = 0.5945): 337 ± 7 J/K/mol
- molar heat capacity at constant pressure ([1]; 283.15 K, x1 = 0.7214): 388 ± 8 J/K/mol
- molar heat capacity at constant pressure ([1]; 283.15 K, x1 = 0.8097): 426 ± 9 J/K/mol
- molar heat capacity at constant pressure ([1]; 283.15 K, x1 = 0.8935): 470 ± 9 J/K/mol
- molar heat capacity at constant pressure ([1]; 288.15 K, x1 = 0.3977): 251 ± 5 J/K/mol
- molar heat capacity at constant pressure ([1]; 288.15 K, x1 = 0.5237): 306 ± 6 J/K/mol
- molar heat capacity at constant pressure ([1]; 288.15 K, x1 = 0.5945): 340 ± 7 J/K/mol
- molar heat capacity at constant pressure ([1]; 288.15 K, x1 = 0.7214): 391 ± 8 J/K/mol
- molar heat capacity at constant pressure ([1]; 288.15 K, x1 = 0.8097): 429 ± 9 J/K/mol
- molar heat capacity at constant pressure ([1]; 288.15 K, x1 = 0.8935): 474 ± 9 J/K/mol
- molar heat capacity at constant pressure ([1]; 293.15 K, x1 = 0.3977): 253 ± 5 J/K/mol
- molar heat capacity at constant pressure ([1]; 293.15 K, x1 = 0.5237): 309 ± 6 J/K/mol
- molar heat capacity at constant pressure ([1]; 293.15 K, x1 = 0.5945): 342 ± 7 J/K/mol
- molar heat capacity at constant pressure ([1]; 293.15 K, x1 = 0.7214): 393 ± 8 J/K/mol
- molar heat capacity at constant pressure ([1]; 293.15 K, x1 = 0.8097): 432 ± 9 J/K/mol
- molar heat capacity at constant pressure ([1]; 293.15 K, x1 = 0.8935): 476 ± 10 J/K/mol
- molar heat capacity at constant pressure ([1]; 298.15 K, x1 = 0.3977): 255 ± 5 J/K/mol
- molar heat capacity at constant pressure ([1]; 298.15 K, x1 = 0.5237): 311 ± 6 J/K/mol
- molar heat capacity at constant pressure ([1]; 298.15 K, x1 = 0.5945): 344 ± 7 J/K/mol
- molar heat capacity at constant pressure ([1]; 298.15 K, x1 = 0.7214): 396 ± 8 J/K/mol
- molar heat capacity at constant pressure ([1]; 298.15 K, x1 = 0.8097): 434 ± 9 J/K/mol
- molar heat capacity at constant pressure ([1]; 298.15 K, x1 = 0.8935): 479 ± 10 J/K/mol
- molar heat capacity at constant pressure ([1]; 303.15 K, x1 = 0.3977): 257 ± 5 J/K/mol
- molar heat capacity at constant pressure ([1]; 303.15 K, x1 = 0.5237): 313 ± 6 J/K/mol
- molar heat capacity at constant pressure ([1]; 303.15 K, x1 = 0.5945): 347 ± 7 J/K/mol
- molar heat capacity at constant pressure ([1]; 303.15 K, x1 = 0.7214): 398 ± 8 J/K/mol
- molar heat capacity at constant pressure ([1]; 303.15 K, x1 = 0.8097): 437 ± 9 J/K/mol
- molar heat capacity at constant pressure ([1]; 303.15 K, x1 = 0.8935): 482 ± 10 J/K/mol
- molar heat capacity at constant pressure ([1]; 308.15 K, x1 = 0.3977): 258 ± 5 J/K/mol
- molar heat capacity at constant pressure ([1]; 308.15 K, x1 = 0.5237): 315 ± 6 J/K/mol
- molar heat capacity at constant pressure ([1]; 308.15 K, x1 = 0.5945): 349 ± 7 J/K/mol
- molar heat capacity at constant pressure ([1]; 308.15 K, x1 = 0.7214): 400 ± 8 J/K/mol
- molar heat capacity at constant pressure ([1]; 308.15 K, x1 = 0.8097): 439 ± 9 J/K/mol
- molar heat capacity at constant pressure ([1]; 308.15 K, x1 = 0.8935): 484 ± 10 J/K/mol
- molar heat capacity at constant pressure ([1]; 313.15 K, x1 = 0.3977): 260 ± 5 J/K/mol
- molar heat capacity at constant pressure ([1]; 313.15 K, x1 = 0.5237): 316 ± 6 J/K/mol
- molar heat capacity at constant pressure ([1]; 313.15 K, x1 = 0.5945): 351 ± 7 J/K/mol
- molar heat capacity at constant pressure ([1]; 313.15 K, x1 = 0.7214): 402 ± 8 J/K/mol
- molar heat capacity at constant pressure ([1]; 313.15 K, x1 = 0.8097): 441 ± 9 J/K/mol
- molar heat capacity at constant pressure ([1]; 313.15 K, x1 = 0.8935): 487 ± 10 J/K/mol
- molar heat capacity at constant pressure ([1]; 318.15 K, x1 = 0.3977): 261 ± 5 J/K/mol
- molar heat capacity at constant pressure ([1]; 318.15 K, x1 = 0.5237): 318 ± 6 J/K/mol
- molar heat capacity at constant pressure ([1]; 318.15 K, x1 = 0.5945): 353 ± 7 J/K/mol
- molar heat capacity at constant pressure ([1]; 318.15 K, x1 = 0.7214): 404 ± 8 J/K/mol
- molar heat capacity at constant pressure ([1]; 318.15 K, x1 = 0.8097): 441 ± 9 J/K/mol
- molar heat capacity at constant pressure ([1]; 318.15 K, x1 = 0.8935): 490 ± 10 J/K/mol
- molar heat capacity at constant pressure ([1]; 323.15 K, x1 = 0.3977): 261 ± 5 J/K/mol
- molar heat capacity at constant pressure ([1]; 323.15 K, x1 = 0.5237): 319 ± 6 J/K/mol
- molar heat capacity at constant pressure ([1]; 323.15 K, x1 = 0.5945): 355 ± 7 J/K/mol
- molar heat capacity at constant pressure ([1]; 323.15 K, x1 = 0.7214): 405 ± 8 J/K/mol
- molar heat capacity at constant pressure ([1]; 323.15 K, x1 = 0.8097): 442 ± 9 J/K/mol
- molar heat capacity at constant pressure ([1]; 323.15 K, x1 = 0.8935): 492 ± 10 J/K/mol
- molar heat capacity at constant pressure ([1]; 328.15 K, x1 = 0.3977): 262 ± 5 J/K/mol
- molar heat capacity at constant pressure ([1]; 328.15 K, x1 = 0.5237): 320 ± 6 J/K/mol
- molar heat capacity at constant pressure ([1]; 328.15 K, x1 = 0.5945): 357 ± 7 J/K/mol
- molar heat capacity at constant pressure ([1]; 328.15 K, x1 = 0.7214): 406 ± 8 J/K/mol
- molar heat capacity at constant pressure ([1]; 328.15 K, x1 = 0.8097): 443 ± 9 J/K/mol
- molar heat capacity at constant pressure ([1]; 328.15 K, x1 = 0.8935): 495 ± 10 J/K/mol
- molar heat capacity at constant pressure ([1]; 333.15 K, x1 = 0.3977): 263 ± 5 J/K/mol
- molar heat capacity at constant pressure ([1]; 333.15 K, x1 = 0.5237): 321 ± 6 J/K/mol
- molar heat capacity at constant pressure ([1]; 333.15 K, x1 = 0.5945): 358 ± 7 J/K/mol
- molar heat capacity at constant pressure ([1]; 333.15 K, x1 = 0.7214): 408 ± 8 J/K/mol
- molar heat capacity at constant pressure ([1]; 333.15 K, x1 = 0.8097): 443 ± 9 J/K/mol
- molar heat capacity at constant pressure ([1]; 333.15 K, x1 = 0.8935): 497 ± 10 J/K/mol
- molar heat capacity at constant pressure ([1]; 338.15 K, x1 = 0.3977): 263 ± 5 J/K/mol
- molar heat capacity at constant pressure ([1]; 338.15 K, x1 = 0.5237): 322 ± 6 J/K/mol
- molar heat capacity at constant pressure ([1]; 338.15 K, x1 = 0.5945): 360 ± 7 J/K/mol
- molar heat capacity at constant pressure ([1]; 338.15 K, x1 = 0.7214): 408 ± 8 J/K/mol
- molar heat capacity at constant pressure ([1]; 338.15 K, x1 = 0.8097): 442 ± 9 J/K/mol
- molar heat capacity at constant pressure ([1]; 338.15 K, x1 = 0.8935): 500 ± 10 J/K/mol
- excess molar enthalpy ([2]; x1 = 0.2433): 0.0308 ± 0.00043 kcal/mol
- excess molar enthalpy ([2]; x1 = 0.258): 0.0292 ± 0.000406 kcal/mol
- excess molar enthalpy ([2]; x1 = 0.2745): 0.0249 ± 0.000382 kcal/mol
- excess molar enthalpy ([2]; x1 = 0.2933): 0.0158 ± 0.000311 kcal/mol
- excess molar enthalpy ([2]; x1 = 0.3149): 0.00142 ± 0.000201 kcal/mol
